Data from US6362163B1, “Parathyroid hormone-related peptide analogs” (The General Hospital Corporation, priority 1996, dated 2002).

Key:
[1] = target: T1, PTH/PTHrP receptor (Homo sapiens, UniProt Q03431); experiment: Competition radioligand binding, COS-7 cells transfected with human PTH/PTHrP receptor
T1 construct: expressed in transfected cells; host or cells: COS-7 cells, transient transfection, vector pcDNA-1
T1 sequence (Q03431 27-593): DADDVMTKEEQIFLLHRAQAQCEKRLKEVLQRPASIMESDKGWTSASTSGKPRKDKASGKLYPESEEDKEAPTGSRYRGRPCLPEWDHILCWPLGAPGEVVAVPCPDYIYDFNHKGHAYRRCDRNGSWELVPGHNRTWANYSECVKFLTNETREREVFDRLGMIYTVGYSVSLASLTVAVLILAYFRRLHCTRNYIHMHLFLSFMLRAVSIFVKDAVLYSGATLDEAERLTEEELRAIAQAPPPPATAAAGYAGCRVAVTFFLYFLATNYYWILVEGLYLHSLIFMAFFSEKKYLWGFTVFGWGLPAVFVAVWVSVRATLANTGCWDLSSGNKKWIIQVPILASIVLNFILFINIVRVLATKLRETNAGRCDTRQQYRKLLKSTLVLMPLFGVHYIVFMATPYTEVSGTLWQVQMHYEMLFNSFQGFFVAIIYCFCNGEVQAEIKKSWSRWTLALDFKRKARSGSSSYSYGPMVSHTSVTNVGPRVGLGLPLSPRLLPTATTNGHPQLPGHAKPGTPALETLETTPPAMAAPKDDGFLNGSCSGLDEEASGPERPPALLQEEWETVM
Method: (§1) The cDNAs encoding the human PTH/PTHrP receptor (Schipani, E. et al., Endocrinology 132:2157-2165 (1993)) and the human PTH-2 receptor (Usdin, T. et al., J. Biol. Chem. 270:15455-15458 (1995)) were carried on the expression vectors pcDNA-1 and pcDNAI/Amp (InVitrogen, San Diego, Calif.), respectively. COS-7 cells were cultured and transfected as described previously (Lee, C. et al., Mol. Endocrinol. 9:1269-1278 (1995)). Cells were transfected in 24-well plates using plasmid DNA (200 ng/well) purified by cesium chloride/ethidium bromide gradient centrifugation. Ligand binding and cAMP accumulation assays were performed three days after transfection, by which time the cell density reached 500,000±100,000 cells/well.
(§2) Binding reactions were performed as described previously. Id. Each well (final volume: […]) contained 26 fmole of ^125I-[Nle^8,21,Tyr^34]rPTH(1-34)NH2 (100,000 CPM) and various amounts (0.4-300 pmole) of an unlabeled competitor ligand, both diluted in binding buffer (50 mM Tris-HCl, pH 7.7, 100 mM NaCl, 5 mM KCl, 2 mM CaCl, 5% heat-inactivated horse serum, 0.5% heat-inactivated fetal bovine serum). Incubations were at room temperature for 2 hours, except for experiments involving Scatchard analysis, which were performed at 4° C. for 6 hours. At the end of the binding reaction, the cells were rinsed 3 times with 0.5 ml of binding buffer, lysed with 0.5 ml of 5M NaOH, and the entire lysate was counted. Nonspecific binding of tracer (NSB), determined in wells containing 1 μM of [NleTyr^8,21,Tyr^34]rPTH-(1-34)NH2, was ˜1% of total counts added. Maximum specific binding (B0) was calculated as the total radioactivity bound to cells in the absence of unlabeled PTH ligand, minus NSB. […] For Scatchard analyses, homologous competition binding studies were performed that used ^125I-[-NleTyr^8,21,Tyr^34]rPTH-(1-34)NH2 (26 fmole/well) and varying amounts (1.2-300 pmol) of the same unlabeled ligand. Estimates of the number of receptors/cell derived from these studies assumed a single class of binding sites and a transfection efficiency of 20% (Abou-Samra, A. B. et al., Proc. Natl. Acad. Sci (USA) 89:2732-2736 (1992)).

[2] = target: T1, PTH/PTHrP receptor; experiment: Antagonism of PTH-(1-34)-induced cAMP formation, COS-7 cells expressing PTH/PTHrP receptor; assay type: cell-based; details: IBMX, 30 minutes at room temperature
Method: (§3) FIGS. 7A and 7B depicts the antagonism of PTH-(1-34)-induced cAMP formation in COS-7 cells expressing PTH/PTHrP or PTH-2 receptors. […] The corresponding basal cAMP levels in cells not treated with peptide were […] pmoles/well, respectively. Data are the mean (±s.e.m.) of two experiments, each performed in duplicate.
(§4) Transfected COS-7 cells were rinsed with […] of binding buffer. 200 μl of IBMX buffer (DMEM containing 2 mM IBMX, 1 mg/ml bovine serum albumin, 35 mM Hepes-NaOH, pH 7.4) and […] of binding buffer or binding buffer containing various amounts of a PTH or PTHrP analog were then added. The plates were incubated for 60 minutes at room temperature. The buffer was then withdrawn and the cells lysed by placing the plates on powdered dry ice and adding 0.5 ml of 50 mM HCl. The acid lysate was diluted 1/30 in dH2O, and an aliquot (5-50 μl) analyzed for cAMP content by radioimmunoassay. […] The cells were then incubated for 30 minutes at room temperature, and the resulting intracellular cAMP was measured by RIA. Data were analyzed using the AssayZap software (Elsevier Science Publishers BV, Cambridge, United Kingdom).

[3] = target: T2, PTH-2 receptor (Homo sapiens, UniProt P49190); experiment: Antagonism of PTH-(1-34)-induced cAMP formation, COS-7 cells expressing PTH-2 receptor; assay type: cell-based; details: IBMX, 30 minutes at room temperature
T2 construct: expressed in transfected cells; host or cells: COS-7 cells, transient transfection, vector pcDNAI/Amp
Method: as §3, §4

[4] = target: T2, PTH-2 receptor; experiment: Ligand-induced intracellular cAMP accumulation, COS-7 cells expressing human PTH-2 receptor; assay type: cell-based; details: for cAMP agonist activity in words, PTH-2 receptor: COS-7 cells; for cAMP accumulation Maximum, PTH-2 receptor: highest level of cAMP attained, basal 5.4 ± 0.3 not subtracted, 1h at room temperature
Method: as §1, §4

[5] = target: T2, PTH-2 receptor; experiment: Competition radioligand binding, COS-7 cells transfected with human PTH-2 receptor
Method: as §1, §2

[6] = target: T1, PTH/PTHrP receptor; experiment: Ligand-induced intracellular cAMP accumulation, COS-7 cells expressing human PTH/PTHrP receptor; assay type: cell-based; details: for cAMP agonist activity in words, PTH/PTHrP receptor: COS-7 cells; for cAMP accumulation Maximum, PTH/PTHrP receptor: highest level of cAMP attained, basal 4.6 ± 0.2 not subtracted, 1h at room temperature
Method: as §1, §4

[7] = agonist [Tyr34]hPTH-(1-34)NH2 1 nM
[8] = competition with radioligand, COS-7 cells

T2 sequence (P49190 25-550): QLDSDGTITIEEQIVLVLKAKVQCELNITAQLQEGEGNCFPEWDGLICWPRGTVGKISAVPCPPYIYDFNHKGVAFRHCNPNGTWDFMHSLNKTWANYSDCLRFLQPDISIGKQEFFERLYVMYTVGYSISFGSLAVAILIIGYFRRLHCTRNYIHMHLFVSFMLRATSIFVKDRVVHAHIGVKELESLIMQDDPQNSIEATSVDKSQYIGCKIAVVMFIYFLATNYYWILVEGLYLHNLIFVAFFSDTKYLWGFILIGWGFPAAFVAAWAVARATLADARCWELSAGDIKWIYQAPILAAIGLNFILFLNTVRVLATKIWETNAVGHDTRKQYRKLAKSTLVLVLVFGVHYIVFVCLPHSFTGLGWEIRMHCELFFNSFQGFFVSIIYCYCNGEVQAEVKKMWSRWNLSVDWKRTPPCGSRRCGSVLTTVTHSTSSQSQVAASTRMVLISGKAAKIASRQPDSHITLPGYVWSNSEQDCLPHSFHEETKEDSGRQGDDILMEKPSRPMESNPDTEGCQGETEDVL

Binding affinity, fold stronger than PTHrP-(1-36) ([1]; PTH/PTHrP receptor)	cAMP agonist activity in words, PTH-2 receptor [4]	cAMP accumulation Maximum, PTH-2 receptor [4]	Enhancement of binding potency compared to PTHrP-(1-36) ([5]; PTH-2 receptor)	cAMP agonist activity in words, PTH/PTHrP receptor [6]	cAMP accumulation Maximum, PTH/PTHrP receptor [6]	Binding potency, fold more potent than PTHrP-(1-36) ([1]; PTH/PTHrP receptor, inhibition of radioligand binding)	cAMP level in cells treated with agonist alone, PTH/PTHrP receptor ([2]; 1 nM)	cAMP level in cells treated with agonist alone, PTH-2 receptor ([3]; 1 nM)	Binding in words, PTH-2 receptor [5, 8]	Substance	Effect on PTH-(1-34)-induced cAMP response in words, PTH/PTHrP receptor [2, 7]	Inhibition of PTH-(1-34)-induced cAMP activity in words, PTH-2 receptor [3, 7]	Binding in words, PTH/PTHrP receptor [1, 8]
6 fold	inactive	12 ± 1 pmoles/well	71 fold	potent agonist	123 ± 14 pmoles/well	–	–	–	–	[Trp^23,Tyr^36]hPTHrP-(1-36) [[W23, Y36]hPTHrP-(1-36)NH2]	not an antagonist, but instead augmented the agonist response to PTH-(1-34)	at least as potent as [Leu^11,D-Trp^12]hPTHrP(7-34)NH2	–
–	potent agonist	81 ± 5 pmoles/well	–	full and potent agonists	113 ± 13 pmoles/well	4.8 fold	167±17 pmoles/well	70±8 pmoles/well	bound with high apparent affinity	[Tyr^34]hPTH-(1-34)NH2 [[Y34]hPTH-(1-34)NH2, reference compound]	–	–	fully inhibited binding of the radioligand
